Drawing on paper PMC12040169 (PLOS Biology, 2025), this text covers viability for 31 compounds.

By viability is commonly meant a read-out of living cells in per cent, often relative to untreated cells.

The nature of the data set: in vitro. The note with it: human, hela cells, % viability.

SMILES strings stand for the structures.

For the compound `CN1CC(c2ccccc2)CC2(CCN(CCCn3cnnn3)CC2)C1` (stereo not shown) [CBK306522], the viability at 28.5 h, 10 µM came out at 95%.
As for `O=C(O)CSc1nnc2n(-c3ccccc3)c3ccccc3n12` [CBK268557], the figure is 106%; as for `O=[N+]([O-])c1cccc(CNc2nccnc2-c2ccccc2F)c1` [CBK037416], 102%; as for `O=C(Nc1cccc(Cl)c1)c1cc2cc(O)ccc2cc1O` [CBK016894], 98.2%.
As for `Nc1nonc1C(=O)NCCNc1ccc([N+](=O)[O-])cc1` [CBK262577], the figure is 104%; as for `Cc1ccc(S(=O)(=O)Oc2ccc(C(c3c(C)n[nH]c3O)c3c(C)n[nH]c3O)cc2)cc1` [CBK265305], 104%.
For `O=C(COc1ccccc1)NC(=S)Nc1cc(-c2nc3ncccc3o2)ccc1Cl` [CBK264380], the viability at 28.5 h, 10 µM came out at 89.3%.
As for `NC(=O)c1ccc(NC(=O)c2cncc(-c3ccc(C(=O)N4CCOCC4)cc3)c2)cc1` [CBK160214], the figure is 106%.
`Cc1cc(C)c(S(=O)(=O)Nc2ccccc2C(=O)NCc2ccco2)c(C)c1` [CBK266382]: the viability at 28.5 h, 10 µM is 98.2%.
Consider `CC(=O)OCc1nc2cc(F)c(F)cc2[nH]1` [CBK110117], for which the viability at 28.5 h, 10 µM turned out to be 92.9%.
On to `Cc1cc(NC(=O)c2ccc(Br)cc2)nc2c1c(=O)oc1ccccc12` [CBK291262], for which the viability at 28.5 h, 10 µM came out at 102%.
As to `Nc1cc(Cl)cc2[nH]c(=O)c3cc(Cl)ccc3c12` [CBK017144], the viability at 28.5 h, 10 µM was determined as 73.3%.
On to `Nc1ncnc2c1ncn2[C@@H]1O[C@H](CCl)[C@H](O)C1O` (stereo partly shown) [CBK201252], for which the viability at 28.5 h, 10 µM stood at 98.8%.
The result for `O=C(Nc1ccc(F)cc1)c1[nH]c2ccccc2c1NS(=O)(=O)c1cc(Cl)sc1Cl` [CBK050094] reads 95%; that for `COc1ccc(S(=O)(=O)N(C)CC(=O)Nc2cccc(F)c2)cc1Cl` [CBK267882], 90%; that for `O=C(CCn1c(C(F)(F)F)cc2cccnc21)NC1CCCC1` [CBK284864], 103%.
Consider `Cc1nn(C)cc1CN(Cc1ccccc1F)CC1CCCO1` (stereo not shown) [CBK283014], for which the viability at 28.5 h, 10 µM was found to be 106%.
Consider `Cc1ccc(NC(=O)c2cnc3sc(C)cn3c2=O)cc1` [CBK287711], for which the viability at 28.5 h, 10 µM came out at 97.8%.
For the compound `O=C(C1CCCC1)N1CCC(n2c(=O)oc3ccc(Cl)cc32)CC1` [CBK284344], the viability at 28.5 h, 10 µM worked out at 96.7%.
Turning to `CC1CCc2n[nH]c(C(=O)NCCCc3ccccn3)c2C1` (stereo not shown) [CBK283194], the viability at 28.5 h, 10 µM was found to be 105%.
As for `O=C(Nc1ccc(S(=O)(=O)NCC2CCCO2)cc1)c1cc(-c2ccccc2)nc2ccccc12` (stereo not shown) [CBK267537], the viability at 28.5 h, 10 µM amounted to 84.3%.
The result for `O=C(N[C@H]1CCN2C(=O)c3cc(-c4ccccc4)ccc3NC(=O)[C@H]12)c1cccs1` [CBK289350] reads 85.9%.
As for `c1ccc(CCN2CCC(Oc3nccnc3OCCN3CCOCC3)CC2)nc1` [CBK082944], the viability at 28.5 h, 10 µM turned out to be 96%.
The result for `Cc1ccc(C(=O)N2CCN(Cc3cc(=O)n4ccsc4n3)CC2)cc1` [CBK305057] reads 107%; that for `Cc1cccc(-n2nc3c4nonc4ccc3[n+]2[O-])c1C` [CBK264626], 93.6%.
For `CCN(CCc1ccccn1)S(=O)(=O)c1ccc(OC(F)(F)F)cc1` [CBK044968], the viability at 28.5 h, 10 µM was 92.4%.
On to `COc1cc(NC(=O)N2CCC(C(=O)O)CC2)cc(OC)c1OC` [CBK156076], for which the viability at 28.5 h, 10 µM worked out at 97.8%.
As for `CS(=O)(=O)c1ccc(Cn2cc(CN3CCC(Sc4ccccn4)CC3)nn2)cc1` [CBK149475], the figure is 98.4%.
As for `CN(C(=O)c1cccnc1)C(CC1CCCCC1)C1CCCCC1` (stereo not shown) [CBK015849], the figure is 99.1%; as for `COC(=O)C1C(=O)c2cc3c(cc2C1c1cc(OC)c(OC)c(OC)c1)OCO3` (stereo not shown) [CBK200099], 92.5%; as for `COc1ccc(-c2cc(C(=O)NCC3CCNCC3)cnc2-c2ccc(Cl)cc2)cn1` [CBK036700], 105%.
